From patent US20230295181A1, “INHIBITOR OF APOPTOSIS (IAP) PROTEIN ANTAGONISTS” (Sanford Burnham Prebys Medical Discovery Institute, priority 2020, published 2023)
Structures can show the parent of a compound that is named as a salt.

Each compound was assayed on SKOV-3 cancer cell lines (assay: SKOV-3 cell viability after treatment with 10 μM test compound). Settings: 10 micromolar test compound.
Format: cell-based
Procedure: SKOV-3 cancer cell lines were treated with a test compound, either as a pure enantiomer or a mixture of stereoisomers, at a concentration of 10 μM. Cell viability was evaluated following treatment with a compound as disclosed in Table B. Viability of cancer cells following treatment is indicated according to the following legend:
A=0-25% viability B=26-50% viability C=>50% viability

Row | Structure (SMILES) | % viability after treatment with 10 micromolar of test compound (SKOV-3 cells)
1 | CN[C@@H](C)C(=O)N[C@H]1Cc2cc(OC)ccc2[C@H]2CC(C)(C)C(C(=O)N[C@@H]3CCCc4ccccc43)N2C1=O (some centres unmarked) [Compound 7] | B (B=26-50% viability)

Same assay, conditions: 10 micromolar test compound, dihydrochloride

Row | Structure (SMILES) | % viability after treatment with 10 micromolar of test compound (SKOV-3 cells)
2 | CN[C@@H](C)C(=O)N[C@H]1CCO[C@H]2CC(C)(C)[C@@H](CN[C@@H]3CCSc4ccccc43)N2C1=O [Compound 67, (S)—N-((4S,7S,9aS)-8,8-dimethyl-5-oxo-7-((((R)-thiochroman-4-yl)amino)methyl)octahydropyrrolo[2,1-b][1,3]oxazepin-4-yl)-2-(methylamino)propanamide dihydrochloride] | B (B=26-50% viability)

Same assay, conditions: 10 micromolar test compound, hydrochloride

Row | Structure (SMILES) | % viability after treatment with 10 micromolar of test compound (SKOV-3 cells)
3 | CN[C@@H](C)C(=O)N[C@H]1CCO[C@H]2CC(CCc3ccccc3)(CCc3ccccc3)[C@@H](C(=O)N[C@@H]3CCCc4ccccc43)N2C1=O [Compound 24, (4S,9aS)-4-((S)-2-(methylamino)propanamido)-5-oxo-8,8-diphenethyl-N—((R)-1,2,3,4-tetrahydronaphthalen-1-yl)octahydropyrrolo[2,1-b][1,3]oxazepine-7-carboxamide hydrochloride] | B (B=26-50% viability)
4 | CCC1(CC)C[C@@H]2OCC[C@H](NC(=O)[C@H](C)NC)C(=O)N2[C@@H]1C(=O)NC(c1ccccc1)c1ccccc1 [Compound 59, (4S)—N-benzhydryl-8,8-diethyl-4-((S)-2-(methylamino)propanamido)-5-oxooctahydropyrrolo[2,1-b][1,3]oxazepine-7-carboxamide hydrochloride] | A (A=0-25% viability)
5 | CN[C@@H](C)C(=O)N[C@H]1CCS[C@H]2CC(C(C)C)(C(C)C)[C@@H](C(=O)N[C@@H]3CCCc4ccccc43)N2C1=O [Compound 40, 4S,9aS)-8,8-diisopropyl-4-((S)-2-(methylamino)propanamido)-5-oxo-N—((R)-1,2,3,4-tetrahydronaphthalen-1-yl)octahydropyrrolo[2,1-b][1,3]thiazepine-7-carboxamide hydrochloride] | C (C=>50% viability)
6 | CN[C@@H](C)C(=O)N[C@H]1CCS[C@H]2CC(C(C)C)(C(C)C)[C@@H](C(=O)N[C@@H]3CCCc4ccccc43)N2C1=O [Compound 43, 4S,9aS)-8,8-diisopropyl-4-((S)-2-(methylamino)propanamido)-5-oxo-N—((R)-1,2,3,4-tetrahydronaphthalen-1-yl)octahydropyrrolo[2,1-b][1,3]thiazepine-7-carboxamide hydrochloride] | C (C=>50% viability)
7 | CN[C@@H](C)C(=O)N[C@H]1CCS[C@H]2CC(C(C)C)(C(C)C)[C@@H](C(=O)N[C@@H]3CCCc4ccccc43)N2C1=O [Compound 42, 4S,9aS)-8,8-diisopropyl-4-((S)-2-(methylamino)propanamido)-5-oxo-N—((R)-1,2,3,4-tetrahydronaphthalen-1-yl)octahydropyrrolo[2,1-b][1,3]thiazepine-7-carboxamide hydrochloride] | C (C=>50% viability)
8 | C=CCC1C[C@@H]2SCC[C@H](NC(=O)[C@H](C)NC)C(=O)N2[C@@H]1C(=O)N[C@@H]1CCCc2ccccc21 (stereo partly drawn) [Compound 27, (4S,9aS)-8,8-allyl-4-((S)-2-(methylamino)propanamido)-5-oxo-N—((R)-1,2,3,4-tetrahydronaphthalen-1-yl)octahydropyrrolo[2,1-b][1,3]thiazepine-7-carboxamide hydrochloride] | B (B=26-50% viability)
9 | C=CCC1(CC=C)C[C@@H]2OCC[C@H](NC(=O)[C@H](C)NC)C(=O)N2[C@@H]1C(=O)NC(c1ccccc1)c1ccccc1 [Compound 49, (4S)-8,8-diallyl-N-benzhydryl-4-((S)-2-(methylamino)propanamido)-5-oxooctahydropyrrolo[2,1-b][1,3]oxazepine-7-carboxamide hydrochloride] | B (B=26-50% viability)
10 | CCC1(CC)C[C@@H]2OCC[C@H](NC(=O)[C@H](C)NC)C(=O)N2[C@@H]1C(=O)NC(c1ccccc1)c1ccccc1 [Compound 58, (4S)—N-benzhydryl-8,8-diethyl-4-((S)-2-(methylamino)propanamido)-5-oxooctahydropyrrolo[2,1-b][1,3]oxazepine-7-carboxamide hydrochloride] | B (B=26-50% viability)

Same assay, conditions: Homo sapiens, SK-OV-3, 10 micromolar test compound; SKOV-3 cells

Row | Structure (SMILES) | viability at 10 µM
11 | CN[C@@H](C)C(=O)N[C@@H]1C(=O)N2[C@H](CC(C)[C@H]2C(=O)N[C@@H]2CCCc3ccccc32)OC2CCCCC21 (some centres unmarked) [Compound 64, hydrochloride] | 0 to 25%
12 | CN[C@@H](C)C(=O)N[C@H]1Cc2ccc(OC)cc2[C@H]2CC(C)(C)C(C(=O)NC(c3ccccc3)c3ccccc3)N2C1=O (single isomer, unassigned) [Compound 6, hydrochloride] | 26 to 50%
13 | CN[C@@H](C)C(=O)N[C@H]1CCO[C@H]2CC(CCc3ccccc3)(CCc3ccccc3)[C@H](C(=O)N[C@@H]3CCCc4ccccc43)N2C1=O [Compound 22, (4S,9aS)-4-((S)-2-(methylamino)propanamido)-5-oxo-8,8-diphenethyl-N—((R)-1,2,3,4-tetrahydronaphthalen-1-yl)octahydropyrrolo[2,1-b][1,3]oxazepine-7-carboxamide hydrochloride] | 0 to 25%
14 | CN[C@@H](C)C(=O)N[C@H]1CCO[C@H]2CC(CCc3ccccc3)(CCc3ccccc3)C(C(=O)N[C@@H]3CCCc4ccccc43)N2C1=O (stereo partly drawn) [Compound 23, (4S,9aS)-4-((S)-2-(methylamino)propanamido)-5-oxo-8,8-diphenethyl-N—((R)-1,2,3,4-tetrahydronaphthalen-1-yl)octahydropyrrolo[2,1-b][1,3]oxazepine-7-carboxamide hydrochloride] | 26 to 50%
15 | CN[C@@H](C)C(=O)N[C@H]1Cc2c([nH]c3ccccc23)[C@H]2CC(C)(C)[C@@H](C(=O)NC(c3ccccc3)c3ccccc3)N2C1=O [Compound 54, (6S)—N-benzhydryl-2,2-dimethyl-6-((S)-2-(methylamino)propanamido)-5-oxo-1,2,3,5,6,7,12,12b-octahydropyrrolo[1′,2′:1,2]azepino[3,4-b]indole-3-carboxamide hydrochloride] | > 50%
16 | CN[C@@H](C)C(=O)N[C@H]1CCO[C@H]2CC(C)(C)C(c3nc4ccccc4o3)N2C1=O (stereo partly drawn) [Compound 72, (2S)—N-((4S,9aS)-7-(benzo[d]oxazol-2-yl)-8,8-dimethyl-5-oxooctahydropyrrolo[2,1-b][1,3]oxazepin-4-yl)-2-(methylamino)propanamide hydrochloride] | > 50%
17 | CN[C@@H](C)C(=O)N[C@H]1CCO[C@H]2CC(CCc3ccccc3)(CCc3ccccc3)[C@@H](C(=O)NC(c3ccccc3)c3ccccc3)N2C1=O [Compound 62, (4S)—N-benzhydryl-4-((S)-2-(methylamino)propanamido)-5-oxo-8,8-diphenethyloctahydropyrrolo[2,1-b][1,3]oxazepine-7-carboxamide hydrochloride] | > 50%
